# Laboratory results reported in US9802895B2, “Indole and benzimidazolecarboxamides as insecticides and acaricides” (BAYER CROPSCIENCE AKTIENGESELLSCHAFT, priority 2014, dated 2017).
# What was measured:
# [1] = test system: adult houseflies (Musca domestica); experiment: Musca domestica test (MUSCDO); assay type: in vivo; settings: 100 ppm, after 2 days
# Experimental: Musca domestica Test (MUSCDO) Solvent: dimethyl sulphoxide To produce a suitable active compound formulation, 10 mg of active compound are mixed with 0.5 ml of dimethyl sulphoxide, and the concentrate is diluted with water to the desired concentration. Vessels containing a sponge treated with sugar solution and the active compound preparation of the desired concentration are populated with 10 adult houseflies (Musca domestica). After 2 days, the kill in % is determined. 100% means that all of the flies have been killed; 0% means that none of the flies have been killed.
# [2] = test system: L1 larvae of the Australian sheep blowfly (Lucilia cuprina); experiment: Lucilia cuprina test (LUCICU); assay type: in vivo; settings: 100 ppm, after 2 days
# Experimental: Lucilia cuprina Test (LUCICU) Solvent: dimethyl sulphoxide To produce a suitable active compound formulation, 10 mg of active compound are mixed with 0.5 ml of dimethyl sulphoxide, and the concentrate is diluted with water to the desired concentration. About 20 L1 larvae of the Australian sheep blowfly (Lucilia cuprina) are transferred into a test vessel containing minced horsemeat and the active compound preparation of the desired concentration. After 2 days, the kill in % is determined 100% means that all the larvae have been killed; 0% means that none of the larvae have been killed.
# [3] = log P by HPLC (EEC directive 79/831 Annex V.A8); assay type: physicochemical; settings: 43° C., acidic range pH 2.7; for log P: HPLC, reversed-phase column (C18)
# Experimental: a) The determination of the M^+ by LC-MS in the acidic range is effected at pH 2.7, acetonitrile (contains 0.1% formic acid) and water as eluents; linear gradient from 10% acetonitrile to 95% acetonitrile, instrument: Agilent 1100 LC system, Agilent MSD system, HTS PAL. The log P values reported in the tables and Preparation Examples above were determined in accordance with EEC directive 79/831 Annex V.A8 by HPLC (High Performance Liquid Chromatography) using a reversed-phase column (C18). Temperature 43° C. The calibration is effected with unbranched alkan-2-ones (having 3 to 16 carbon atoms), for which the logP values are known.
# [4] = test system: adult cat fleas (Ctenocephalides felis); experiment: Ctenocephalides felis oral test (CTECFE); assay type: in vivo; settings: 100 ppm, oral in cattle blood, after 2 days
# Experimental: Ctenocephalides felis-Oral Test ([…]) Solvent: dimethyl sulphoxide To produce a suitable active compound formulation, 10 mg of active compound are mixed with 0.5 ml of dimethyl sulphoxide. Dilution with citrated cattle blood gives the desired concentration. About 20 unfed adult cat fleas (Ctenocephalides felis) are placed into a chamber which is closed at the top and bottom with gauze. A metal cylinder whose bottom end is closed with parafilm is placed onto the chamber. The cylinder contains the blood/active compound preparation, which can be imbibed by the fleas through the parafilm membrane. After 2 days, the kill in % is determined 100% means that all of the fleas have been killed; 0% means that none of the fleas have been killed.
# [5] = test system: engorged adult female cattle ticks (Boophilus microplus); experiment: Boophilus microplus injection test (BOOPMI inj); assay type: in vivo; settings: assessed after 7 days
# Experimental: Boophilus microplus Injection Test (BOOPMI inj) Solvent: dimethyl sulphoxide To produce a suitable active compound formulation, 10 mg of active compound are mixed with 0.5 ml of solvent and the concentrate is diluted with solvent to the desired concentration. 1 μl of the active compound solution is injected into the abdomen of 5 engorged adult female cattle ticks (Boophilus microplus). The animals are transferred into dishes and kept in a climate-controlled room. The efficacy is assessed after 7 days by laying of fertile eggs. Eggs which are not visibly fertile are stored in a climate-controlled cabinet until the larvae hatch after about 42 days. An efficacy of 100% means that none of the ticks has laid any fertile eggs; 0% means that all the eggs are fertile.
# [6] = test system: greenhouse red spider mite (Tetranychus urticae); experiment: Tetranychus urticae spray test, OP-resistant (TETRUR); assay type: in vivo; settings: 100 g/ha, spray, after 6 days
# Experimental: Tetranychus urticae—Spray Test, OP-Resistant (TETRUR)
# (§1) Solvent: 78.0 parts by weight of acetone • • 1.5 parts by weight of dimethylformamide
# (§2) Emulsifier: alkylaryl polyglycol ether
# (§3) To produce a suitable active compound formulation, 1 part by weight of active compound is dissolved using the specified parts by weight of solvent and made up with water containing an emulsifier concentration of 1000 ppm until the desired concentration is attained. To produce further test concentrations, the preparation is diluted with emulsifier-containing water.
# Discs of bean leaves (Phaseolus vulgaris) infested by all stages of the greenhouse red spider mite (Tetranychus urticae) are sprayed with an active compound formulation of the desired concentration.
# After 6 days, the efficacy in % is determined 100% means that all the spider mites have been killed; 0% means that none of the spider mites have been killed.
# Tetranychus urticae—Spray Test; OP-Resistant (TETRUR)
# After the desired period of time, the efficacy in % is determined 100% means that all the spider mites have been killed; 0% means that none of the spider mites have been killed.
# [7] = test system: larvae of the mustard beetle (Phaedon cochleariae); experiment: Phaedon cochleariae spray test (PHAECO); assay type: in vivo; settings: after 7 days
# Experimental: Phaedon cochleariae—Spray Test (PHAECO)
# as §1, §2, §3
# After 7 days, the efficacy in % is determined. 100% means that all the beetle larvae have been killed; 0% means that no beetle larvae have been killed.
# [8] = test system: caterpillars of the armyworm (Spodoptera frugiperda); experiment: Spodoptera frugiperda spray test (SPODFR); assay type: in vivo; settings: for efficacy: 100 g/ha, spray, after 7 days
# Experimental: Spodoptera frugiperda—Spray Test (SPODFR) Solvent: 78.0 parts by weight of acetone • • 1.5 parts by weight of dimethylformamide Emulsifier: alkylaryl polyglycol ether To produce a suitable active compound formulation, 1 part by weight of active compound is dissolved using the specified parts by weight of solvent and made up with water containing an emulsifier concentration of 1000 ppm until the desired concentration is attained. To produce further test concentrations, the preparation is diluted with emulsifier-containing water. Leaf discs of maize (Zea mays) are sprayed with an active compound formulation of the desired concentration and, after drying, populated with caterpillars of the armyworm (Spodoptera frugiperda). After 7 days, the efficacy in % is determined 100% means that all the caterpillars have been killed; 0% means that no caterpillars have been killed. Spodoptera frugiperda—Spray Test (SPODFR) Solvent: 78.0 parts by weight of acetone • • 1.5 parts by weight of dimethylformamide Emulsifier: alkylaryl polyglycol ether To produce a suitable active compound formulation, 1 part by weight of active compound is dissolved using the specified parts by weight of solvent and made up with water containing an emulsifier concentration of 1000 ppm until the desired concentration is attained. To produce further test concentrations, the preparation is diluted with emulsifier-containing water. Leaf discs of maize (Zea mays) are sprayed with an active compound formulation of the desired concentration and, after drying, populated with caterpillars of the armyworm (Spodoptera frugiperda). After the desired period of time, the efficacy in % is determined. 100% means that all the caterpillars have been killed; 0% means that no caterpillars have been killed.
SMILES,efficacy (kill in %) [1],efficacy (kill in %) [2],log P [3],efficacy (kill in %) [4],efficacy (laying of fertile eggs) [5],efficacy [6],efficacy ([7]; 100 g/ha),efficacy [8],"% efficacy ([8]; SPODFR, 0.8 g/ha, 7 dat)","% efficacy ([8]; SPODFR, 4 g/ha, 7 dat)","chromatographic logP ([3]; reversed-phase C18 HPLC column, pH 2.7, HPLC)","% efficacy (mortality) at a single application rate at 0.8 g/ha ([8]; Spodoptera frugiperda, 168 h, SPODFR, 0.8 g/ha, 7 dat)","% efficacy (mortality) at a single application rate at 4 g/ha ([8]; Spodoptera frugiperda, 168 h, SPODFR, 4 g/ha, 7 dat)",efficacy ([7]; 20 g/ha)
"CCn1c(C(=O)NC(c2cc(Cl)c(F)c(Cl)c2F)C(F)(F)F)cc2cc(C(=O)NC3(C(N)=S)CC3)c(Cl)cc21 (single isomer, unassigned) [I-17]",80%,90%,4.27;,100%,100%,100%,100%,100%,–,–,–,–,–,–
"CCn1c(C(=O)NC(c2cc(Cl)c(F)c(Cl)c2F)C(F)(F)F)cc2cc(C(=O)NC3(C(N)=S)CC3)c(Cl)cc21 (single isomer, unassigned) [I-18]",100%,100%,4.27;,100%,100%,100%,100%,100%,100%,100%,–,–,–,–
"CCn1c(C(=O)NC(c2cc(Cl)c(F)c(Cl)c2F)C(F)(F)F)cc2cc(C(=O)NC3(C(N)=S)CC3)c(Cl)cc21 (stereo not drawn) [I-01, N5-(1-Carbamothioylcyclopropyl)-6-chloro-N2-[1-(3,5-dichloro-2,4-difluorophenyl)-2,2,2-trifluoroethyl]-1-ethylindole-2,5-dicarboxamide]",100%,100%,–,100%,100%,100%,100%,100%,–,–,4.25,100%,100%,–
CCn1c(C(=O)NC(c2cc(Cl)c(F)c(Cl)c2)C(F)(F)F)cc2cc(C(=O)NC3(C(N)=S)CC3)c(Cl)cc21 (stereo not drawn) [I-02],100%,100%,4.04,100%,100%,100%,100%,100%,100%,100%,–,–,–,–
CCn1c(C(=O)NC(c2ccc(F)c(Br)c2)C(F)(F)F)cc2cc(C(=O)NC3(C(N)=S)CC3)c(Cl)cc21 (stereo not drawn) [I-06],–,–,3.64,–,–,100%,100%,100%,100%,100%,–,–,–,–
Cn1c(C(=O)NC(c2cc(Cl)c(F)c(Cl)c2F)C(F)(F)F)cc2cc(C(=O)NC3(C(N)=S)CC3)c(Cl)cc21 (stereo not drawn) [I-08],–,100%,3.94,100%,100%,100%,100%,100%,100%,100%,–,–,–,–
CCn1c(C(=O)NC(c2cccc(Cl)c2F)C(F)(F)F)cc2cc(C(=O)NC3(C(N)=S)CC3)c(Cl)cc21 (stereo not drawn) [I-11],–,–,3.69,100%,100%,100%,100%,100%,–,–,–,–,–,–
C#CCn1c(C(=O)NC(c2cc(Cl)c(F)c(Cl)c2F)C(F)(F)F)cc2cc(C(=O)NC3(C(N)=S)CC3)c(Cl)cc21 (stereo not drawn) [I-12],100%,100%,3.94,100%,100%,–,100%,100%,100%,100%,–,–,–,–
C#CCn1c(C(=O)NC(c2cc(Cl)c(F)c(Cl)c2)C(F)(F)F)cc2cc(C(=O)NC3(C(N)=S)CC3)c(Cl)cc21 (stereo not drawn) [I-14],–,–,3.81,–,–,100%,100%,100%,–,–,–,–,–,–
Cn1c(C(=O)NC(c2cc(Cl)c(F)c(Cl)c2)C(F)(F)F)cc2cc(C(=O)NC3(C(N)=S)CC3)c(Cl)cc21 (stereo not drawn) [I-15],–,–,3.76,–,–,90%,–,100%,83%,100%,–,–,–,100%
C#CCn1c(C(=O)NC(c2cc(Cl)c(Cl)c(Cl)c2)C(F)(F)F)cc2cc(C(=O)NC3(C(N)=S)CC3)c(Cl)cc21 (stereo not drawn) [I-21],–,–,4.09,–,–,100%,100%,100%,100%,100%,–,–,–,–
CCn1c(C(=O)NC(c2cc(F)cc(F)c2)C(F)F)cc2cc(C(=O)NC3(C(N)=S)CC3)c(Cl)cc21 (stereo not drawn) [I-23],–,90%,3.07,100%,100%,100%,100%,83%,–,–,–,–,–,–
CCn1c(C(=O)NC(c2ccc(Cl)c(Cl)c2)C(F)F)cc2cc(C(=O)NC3(C(N)=S)CC3)c(Cl)cc21 (stereo not drawn) [I-25],–,100%,3.54,100%,100%,100%,100%,100%,–,–,–,–,–,–
CCn1c(C(=O)NC(c2cc(Cl)c(F)c(Cl)c2F)C(F)F)cc2cc(C(=O)NC3(C(N)=S)CC3)c(Cl)cc21 (stereo not drawn) [I-28],–,–,3.90,–,–,100%,100%,100%,–,–,–,–,–,–
